Laboratory results: publication PMC4505863 (ACS Chemical Neuroscience, 2014)
Where two headings read alike, the source gives them in different places.

Experiments:
5-HT2A = settings: cited from earlier work
5-HT2A receptor [1] = molecular target: T1, 5-HT2A receptor (Homo sapiens, UniProt P28223); assay: h5-HT2A affinity, agonist radioligand [125I]DOI; assay type: binding
5-ht1e = 5-ht1e (Homo sapiens, UniProt P28566); assay: PDSP screening affinity 5-ht1e; assay type: binding
h5-HT2C = molecular target: T2, h5-HT2C (Homo sapiens, UniProt P28335); assay: Ca2+ mobilization assay; assay type: cell-based; settings: for Emax: HEK293, read-out: h5HT2C Emax; for EC50: h5HT2C EC50, Ca2+ mobilization
T2 sequence (P28335 33-458): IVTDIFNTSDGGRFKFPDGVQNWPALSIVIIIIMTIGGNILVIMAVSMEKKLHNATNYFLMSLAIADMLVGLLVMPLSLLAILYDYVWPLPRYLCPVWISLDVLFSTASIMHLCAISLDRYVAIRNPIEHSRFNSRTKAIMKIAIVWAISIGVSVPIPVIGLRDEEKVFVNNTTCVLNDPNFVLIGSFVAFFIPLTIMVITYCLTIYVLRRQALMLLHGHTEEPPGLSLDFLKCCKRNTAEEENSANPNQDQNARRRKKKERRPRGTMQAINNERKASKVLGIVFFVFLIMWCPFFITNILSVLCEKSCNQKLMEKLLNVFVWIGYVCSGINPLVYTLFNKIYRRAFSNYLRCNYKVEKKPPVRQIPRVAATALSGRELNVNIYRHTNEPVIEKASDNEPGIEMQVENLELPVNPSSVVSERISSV

human 5-HT2C receptor [2] = molecular target: T3, human 5-HT2C receptor (Homo sapiens, UniProt P28335); assay: h5-HT2C affinity, antagonist radioligand [3H]mesulergine; assay type: binding
T3 sequence (P28335 33-458): T2 sequence (P28335 33-458)

5-HT7 = 5-HT7 (Homo sapiens, UniProt P34969); assay: PDSP screening affinity 5-HT7; assay type: binding; settings: 5-HT7 affinity
Sequence of 5-HT7 (P34969 whole entry): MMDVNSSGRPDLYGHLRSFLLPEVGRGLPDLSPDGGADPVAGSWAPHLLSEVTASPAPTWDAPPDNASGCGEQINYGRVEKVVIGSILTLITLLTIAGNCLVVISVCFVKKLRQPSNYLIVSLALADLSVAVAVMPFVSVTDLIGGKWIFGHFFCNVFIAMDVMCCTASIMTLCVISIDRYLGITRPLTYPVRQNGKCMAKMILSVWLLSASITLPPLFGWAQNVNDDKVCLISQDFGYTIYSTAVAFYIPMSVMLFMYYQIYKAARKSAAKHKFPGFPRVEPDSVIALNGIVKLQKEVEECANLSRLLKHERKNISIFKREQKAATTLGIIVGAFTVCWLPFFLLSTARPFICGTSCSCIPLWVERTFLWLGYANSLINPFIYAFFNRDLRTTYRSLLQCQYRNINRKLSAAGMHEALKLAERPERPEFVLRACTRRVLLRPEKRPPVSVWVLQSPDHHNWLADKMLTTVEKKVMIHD

h5-HT2A = h5-HT2A (Homo sapiens, UniProt P28223); assay: Ca2+ mobilization assay; assay type: cell-based; settings: for Emax: HEK293, read-out: h5-HT2A Emax, percentage of the maximum response to 5-HT
Sequence of h5-HT2A (P28223 whole entry): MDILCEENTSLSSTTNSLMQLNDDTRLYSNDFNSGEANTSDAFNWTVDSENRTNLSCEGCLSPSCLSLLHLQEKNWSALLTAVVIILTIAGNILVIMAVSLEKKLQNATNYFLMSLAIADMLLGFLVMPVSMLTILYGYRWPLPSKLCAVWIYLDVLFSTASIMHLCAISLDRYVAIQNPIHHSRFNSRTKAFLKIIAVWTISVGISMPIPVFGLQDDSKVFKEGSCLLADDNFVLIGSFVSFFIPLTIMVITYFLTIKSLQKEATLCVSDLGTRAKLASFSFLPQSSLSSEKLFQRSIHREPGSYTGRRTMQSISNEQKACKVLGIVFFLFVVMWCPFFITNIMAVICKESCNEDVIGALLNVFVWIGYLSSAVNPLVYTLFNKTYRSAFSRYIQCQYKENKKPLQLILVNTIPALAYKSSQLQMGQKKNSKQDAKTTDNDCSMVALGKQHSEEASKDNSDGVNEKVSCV

r5-HT2C = molecular target: T4, r5-HT2C (Rattus norvegicus, UniProt P08909); assay: Ca2+ mobilization assay; assay type: cell-based; settings: for Emax: read-out: r5-HT2C Emax
T4 sequence (P08909 33-460): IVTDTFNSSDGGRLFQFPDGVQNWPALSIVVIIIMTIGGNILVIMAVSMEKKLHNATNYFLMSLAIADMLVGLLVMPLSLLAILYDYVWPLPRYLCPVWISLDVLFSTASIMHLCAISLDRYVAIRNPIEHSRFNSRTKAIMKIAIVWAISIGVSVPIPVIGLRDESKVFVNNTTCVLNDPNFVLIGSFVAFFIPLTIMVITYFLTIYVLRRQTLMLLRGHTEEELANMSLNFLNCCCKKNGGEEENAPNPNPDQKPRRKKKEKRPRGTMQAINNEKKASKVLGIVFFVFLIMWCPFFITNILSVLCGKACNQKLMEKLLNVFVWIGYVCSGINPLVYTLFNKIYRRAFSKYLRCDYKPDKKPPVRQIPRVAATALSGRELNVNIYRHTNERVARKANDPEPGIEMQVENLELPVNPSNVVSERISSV

human 5-HT2C receptor [3] = molecular target: T3, human 5-HT2C receptor; assay: h5-HT2C affinity, agonist radioligand [125I]DOI; assay type: binding
5-HT1D = 5-HT1D (Homo sapiens, UniProt P28221); assay: PDSP screening affinity 5-HT1D; assay type: binding
Sequence of 5-HT1D (P28221 whole entry): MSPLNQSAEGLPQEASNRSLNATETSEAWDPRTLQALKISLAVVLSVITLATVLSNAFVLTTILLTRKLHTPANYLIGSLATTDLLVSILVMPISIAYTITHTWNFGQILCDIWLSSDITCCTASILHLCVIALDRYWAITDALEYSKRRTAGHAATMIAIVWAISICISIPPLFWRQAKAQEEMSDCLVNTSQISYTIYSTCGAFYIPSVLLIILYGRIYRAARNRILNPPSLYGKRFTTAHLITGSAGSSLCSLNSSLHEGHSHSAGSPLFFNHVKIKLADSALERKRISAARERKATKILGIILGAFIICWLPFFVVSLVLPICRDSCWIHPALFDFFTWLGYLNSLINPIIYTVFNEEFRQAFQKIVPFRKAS

5-HT2B = 5-HT2B (Homo sapiens, UniProt P41595); assay: PDSP screening affinity 5-HT2B; assay type: binding
Sequence of 5-HT2B (P41595 whole entry): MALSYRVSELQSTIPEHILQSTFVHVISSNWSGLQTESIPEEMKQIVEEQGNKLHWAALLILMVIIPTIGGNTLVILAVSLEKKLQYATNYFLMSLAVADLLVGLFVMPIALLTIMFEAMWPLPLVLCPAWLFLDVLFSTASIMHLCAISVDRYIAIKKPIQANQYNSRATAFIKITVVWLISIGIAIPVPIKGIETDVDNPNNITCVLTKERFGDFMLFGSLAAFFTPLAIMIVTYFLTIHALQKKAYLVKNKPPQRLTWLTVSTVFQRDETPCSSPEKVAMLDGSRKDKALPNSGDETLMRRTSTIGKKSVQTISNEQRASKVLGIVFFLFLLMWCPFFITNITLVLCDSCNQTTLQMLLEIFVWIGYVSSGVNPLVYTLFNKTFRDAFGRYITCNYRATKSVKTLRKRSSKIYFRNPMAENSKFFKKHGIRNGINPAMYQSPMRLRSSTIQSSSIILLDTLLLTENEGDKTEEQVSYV

Male C57BL/6J mice [4] = assay: Mouse head twitch response; settings: for activity in the HTR assay (active / inactive): doses up to 30 mg/kg
5-HT6 = 5-HT6 (Homo sapiens, UniProt P50406); assay: PDSP screening affinity 5-HT6; assay type: binding; settings: 5-HT6 affinity
Sequence of 5-HT6 (P50406 whole entry): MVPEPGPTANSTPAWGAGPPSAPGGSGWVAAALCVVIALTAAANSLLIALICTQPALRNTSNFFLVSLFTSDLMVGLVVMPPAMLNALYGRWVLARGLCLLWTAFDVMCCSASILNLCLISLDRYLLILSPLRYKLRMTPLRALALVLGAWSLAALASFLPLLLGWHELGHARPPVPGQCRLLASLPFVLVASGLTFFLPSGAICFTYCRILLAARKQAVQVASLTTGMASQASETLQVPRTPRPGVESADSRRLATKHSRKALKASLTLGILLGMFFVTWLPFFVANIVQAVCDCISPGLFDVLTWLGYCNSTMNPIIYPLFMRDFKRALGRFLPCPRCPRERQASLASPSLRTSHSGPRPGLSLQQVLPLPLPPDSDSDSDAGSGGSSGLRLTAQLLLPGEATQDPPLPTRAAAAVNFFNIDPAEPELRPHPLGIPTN

5-HT1A = molecular target: T5, 5-HT1A (Homo sapiens, UniProt P08908); assay: PDSP screening affinity 5-HT1A; assay type: binding; settings: 5-HT1A affinity
T5 sequence (P08908 1-422): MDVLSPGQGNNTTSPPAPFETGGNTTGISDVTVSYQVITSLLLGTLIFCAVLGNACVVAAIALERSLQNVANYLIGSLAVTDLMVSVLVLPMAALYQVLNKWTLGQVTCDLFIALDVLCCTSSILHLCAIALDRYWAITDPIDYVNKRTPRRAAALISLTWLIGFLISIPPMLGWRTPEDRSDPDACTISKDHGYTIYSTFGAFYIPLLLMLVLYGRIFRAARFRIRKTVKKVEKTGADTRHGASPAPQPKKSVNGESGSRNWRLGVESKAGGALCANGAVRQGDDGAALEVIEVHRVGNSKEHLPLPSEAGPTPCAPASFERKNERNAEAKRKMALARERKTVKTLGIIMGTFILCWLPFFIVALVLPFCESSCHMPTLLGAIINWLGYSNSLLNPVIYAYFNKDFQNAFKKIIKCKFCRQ

r5-HT2A = r5-HT2A (Rattus norvegicus, UniProt P14842); assay: Ca2+ mobilization assay; assay type: cell-based; settings: for EC50: r5-HT2A EC50, Ca2+ mobilization; for Emax: read-out: r5-HT2A Emax, percentage of the maximum response to 5-HT
Sequence of r5-HT2A (P14842 whole entry): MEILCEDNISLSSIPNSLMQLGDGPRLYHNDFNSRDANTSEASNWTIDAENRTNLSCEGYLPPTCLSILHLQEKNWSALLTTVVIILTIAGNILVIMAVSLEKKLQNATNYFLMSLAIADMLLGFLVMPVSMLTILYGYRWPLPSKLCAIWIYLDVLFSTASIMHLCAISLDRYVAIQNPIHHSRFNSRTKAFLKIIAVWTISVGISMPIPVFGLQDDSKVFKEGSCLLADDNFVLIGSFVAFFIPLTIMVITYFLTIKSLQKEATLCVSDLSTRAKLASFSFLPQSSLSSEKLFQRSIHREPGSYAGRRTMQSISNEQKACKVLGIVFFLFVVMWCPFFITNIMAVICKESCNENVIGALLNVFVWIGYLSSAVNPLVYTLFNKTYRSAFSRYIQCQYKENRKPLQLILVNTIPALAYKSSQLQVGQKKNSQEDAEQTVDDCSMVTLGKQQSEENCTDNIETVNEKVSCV

5-HT3 = molecular target: T6, 5-HT3 (Homo sapiens, UniProt P46098); assay: PDSP screening affinity 5-HT3; assay type: binding
T6 sequence (P46098 24-478): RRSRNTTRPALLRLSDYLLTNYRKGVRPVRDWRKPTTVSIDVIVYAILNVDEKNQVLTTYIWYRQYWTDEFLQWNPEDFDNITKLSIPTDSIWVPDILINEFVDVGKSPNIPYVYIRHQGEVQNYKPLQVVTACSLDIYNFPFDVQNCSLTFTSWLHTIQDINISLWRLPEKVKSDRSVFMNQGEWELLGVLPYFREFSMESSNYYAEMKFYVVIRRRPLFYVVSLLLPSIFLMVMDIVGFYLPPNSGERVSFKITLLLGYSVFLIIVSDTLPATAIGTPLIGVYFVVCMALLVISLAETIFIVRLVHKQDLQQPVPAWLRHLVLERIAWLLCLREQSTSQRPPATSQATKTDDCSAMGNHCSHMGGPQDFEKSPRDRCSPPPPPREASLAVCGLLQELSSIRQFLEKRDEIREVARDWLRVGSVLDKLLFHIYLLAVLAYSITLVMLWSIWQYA

5-HT2A receptor [5] = molecular target: T1, 5-HT2A receptor; assay: h5-HT2A affinity, antagonist radioligand [3H]ketanserin; assay type: binding
h5-HT2B = h5-HT2B (Homo sapiens, UniProt P41595); assay: Ca2+ mobilization assay; assay type: cell-based; settings: for Emax: HEK293, read-out: h5-HT2B Emax
Sequence of h5-HT2B (P41595 whole entry): as the sequence (P41595 whole entry) above

5-ht5a = 5-ht5a (Homo sapiens, UniProt P47898); assay: PDSP screening affinity 5-ht5a; assay type: binding; settings: 5-ht5a affinity
Sequence of 5-ht5a (P47898 whole entry): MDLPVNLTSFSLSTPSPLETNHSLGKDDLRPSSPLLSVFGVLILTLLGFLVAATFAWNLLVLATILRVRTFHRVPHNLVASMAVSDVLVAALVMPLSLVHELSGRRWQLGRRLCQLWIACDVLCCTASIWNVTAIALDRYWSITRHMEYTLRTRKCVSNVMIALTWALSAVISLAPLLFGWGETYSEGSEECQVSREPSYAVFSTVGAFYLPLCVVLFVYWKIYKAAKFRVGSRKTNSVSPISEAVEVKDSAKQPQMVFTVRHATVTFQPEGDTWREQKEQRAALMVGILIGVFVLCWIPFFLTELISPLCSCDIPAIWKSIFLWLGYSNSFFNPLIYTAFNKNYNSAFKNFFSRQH

rat tail artery = settings: cited from earlier work; for pEC50, rat tail artery: agonist potency
5-HT1B = 5-HT1B (Homo sapiens, UniProt P28222); assay: PDSP screening affinity 5-HT1B; assay type: binding
Sequence of 5-HT1B (P28222 whole entry): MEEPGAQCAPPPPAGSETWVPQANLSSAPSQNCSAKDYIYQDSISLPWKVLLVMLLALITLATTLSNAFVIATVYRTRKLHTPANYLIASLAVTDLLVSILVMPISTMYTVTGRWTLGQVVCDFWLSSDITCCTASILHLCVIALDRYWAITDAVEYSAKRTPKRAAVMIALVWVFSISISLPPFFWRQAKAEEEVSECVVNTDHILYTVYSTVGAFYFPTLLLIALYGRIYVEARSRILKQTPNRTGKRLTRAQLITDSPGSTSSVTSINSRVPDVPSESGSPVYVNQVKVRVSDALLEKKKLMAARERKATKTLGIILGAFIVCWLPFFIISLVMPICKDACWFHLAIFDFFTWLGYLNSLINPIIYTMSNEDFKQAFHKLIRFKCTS

5-HT2A receptor [6] = molecular target: T1, 5-HT2A receptor; settings: cited from earlier work
rat stomach fundus = settings: cited from earlier work
[7] = test system: 5-HT2 type receptors in rabbit aorta; settings: cited from earlier work
[8] = test system: 5-HT2 type receptors in rat jugular vein; settings: cited from earlier work
[9] = test system: isolated guinea pig uterus; settings: cited from earlier work
[10] = test system: isolated guinea pig taenia cecum; settings: cited from earlier work
Male C57BL/6J mice [11] = settings: cited from earlier work
mice = settings: cited from earlier work; for active dose range, head twitch: ref 36−38
5-HT2A receptor [12] = molecular target: T1, 5-HT2A receptor; settings: authentic 4-bromo compound; cited from earlier work
[13] = percentage of the maximum response to 5-HT
[14] = h5-HT2B EC50, Ca2+ mobilization
[15] = r5-HT2C EC50, Ca2+ mobilization

Sequence of 5-ht1e (P28566 whole entry): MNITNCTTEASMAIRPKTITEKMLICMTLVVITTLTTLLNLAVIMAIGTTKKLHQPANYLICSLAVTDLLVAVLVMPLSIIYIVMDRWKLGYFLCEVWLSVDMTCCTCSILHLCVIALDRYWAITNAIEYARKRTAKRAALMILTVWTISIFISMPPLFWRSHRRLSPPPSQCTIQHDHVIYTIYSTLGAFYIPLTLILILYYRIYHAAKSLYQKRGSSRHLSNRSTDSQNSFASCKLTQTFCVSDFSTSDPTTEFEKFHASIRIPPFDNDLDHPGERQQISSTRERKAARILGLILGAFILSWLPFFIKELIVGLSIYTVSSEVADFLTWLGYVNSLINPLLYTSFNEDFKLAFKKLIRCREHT
T1 sequence (P28223 whole entry): as the sequence (P28223 whole entry) above

SMILES	Ki (5-HT2A receptor [1]) [nM]	Ki (5-ht1e) [nM]	Emax (h5-HT2C) [%]	EC50 (h5-HT2C) [nM]	Ki (human 5-HT2C receptor [2]) [nM]	Ki (5-HT7) [nM]	EC50 (h5-HT2A) [nM]	Emax (r5-HT2C) [%]	Ki (human 5-HT2C receptor [3]) [nM]	Ki (5-HT1D) [nM]	Ki (5-HT2B; 5-HT2B pKi ± SEM) [nM]	Ki (5-HT6) [nM]	Ki (5-HT1A) [nM]	EC50 (r5-HT2A) [nM]	Ki (5-HT3) [nM]	Ki (5-HT2A receptor [5]) [nM]	Emax (h5-HT2B) [%]	Ki (5-ht5a) [nM]	Ki (5-HT1B; 5-HT1B affinity) [nM]	also measured
COc1cc(CCNCc2ccccc2O)c(OC)cc1C#N [Compound 25CN-NBOH, N-(2-hydroxybenzyl)-2,5-dimethoxy-4-cyanophenethylamine]	–	–	–	–	–	–	–	–	–	–	–	–	–	–	–	–	–	–	–	selectivity for 5-HT2A over 5-HT2C (5-HT2A): 100 fold
COc1ccc2[nH]cc(CCNCc3ccccc3OC)c2c1 [Compound 5a, N-(2-Methoxybenzyl)-2-(5-methoxy-1H-indol-3-yl)ethan-1-amine]	1.51	> 10000	119 ± 6	57.1	32.4	1770	1.9	102 ± 2	3.39	1290	9.12	87	231	21	> 10000	16.6	52 ± 2	> 10000	> 10000	h5-HT2A Emax (h5-HT2A; [13]): 85.2 ± 1.4%; EC50 (r5-HT2C; r5-HT2C pEC50 ± SEM, Ca2+ mobilization): 16.2 nM; Ki (5-HT2B; 5-HT2B affinity): 9 nM; max counts (Male C57BL/6J mice [4]; HTR counts, SC): 25.4; ED50 (Male C57BL/6J mice [4]; Mus musculus, sc, read-out: ED50 mg/kg (95% CI), mouse head twitch): 3.15 mg/kg; activity in the HTR assay (active / inactive) (Male C57BL/6J mice [4]; SC): active; magnitude of peak effect × vehicle (Male C57BL/6J mice [4]; SC, mouse head twitch): 3.9 × vehicle; maximally effective dose (Male C57BL/6J mice [4]; SC, mouse head twitch): 10 mg/kg; Emax (r5-HT2A): 80.9 ± 1.1%; EC50 (h5-HT2B; [14]): 6.7 nM; pEC50, rat tail artery (rat tail artery): 7.08
COc1ccc2[nH]cc(CCNCc3ccccc3)c2c1 [N-benzyl-5-methoxytryptamine]	–	–	–	–	–	–	–	–	–	–	–	–	–	–	–	–	–	–	–	affinity relative to the parent primary amine (5-HT2A receptor [6]; receptor not given): essentially no effect on affinity; effect on serotonin-induced contraction (rat stomach fundus): antagonist; agonist activity at 5-HT2 type receptors [7]: weak partial agonist activity; agonist activity at 5-HT2 type receptors [8]: weak partial agonist activity; effect on serotonin-induced contraction [9]: antagonist; effect on serotonin-induced contraction [10]: antagonist
CCN(CC)C(=O)[C@@H]1C=C2c3cccc4[nH]cc(c34)C[C@H]2N(C)C1 [LSD, reference compound]	–	–	–	–	–	–	–	–	–	–	–	–	–	–	–	–	–	–	–	ED50, HTR, automated system (Male C57BL/6J mice [11]): 0.13 µmol/kg; ED50, head twitch, direct observation (mice): 0.14 µmol/kg
COc1cc(CCNCc2ccccc2OC)c(OC)cc1I [Compound 1, N-(2-Methoxybenzyl)-2-(4-iodo-2,5-dimethoxyphenyl)ethan-1-amine]	0.158	> 10000	92	41.7	0.69	1540	4.2	104 ± 2	0.5	533	1.38	32	1030	11	> 10000	0.52	65 ± 2	2790	5890	h5-HT2A Ki (5-HT2A receptor [1]; [125I]DOI): subnanomolar affinity; Emax (h5-HT2A): 86.4 ± 1.4%; EC50 (r5-HT2C; [15]): 95 nM; h5-HT2C Ki (human 5-HT2C receptor [3]; [125I]DOI): subnanomolar affinity; r5-HT2A Emax (r5-HT2A; [13]): 79.4 ± 1.1%; EC50 (h5-HT2B; h5-HT2B pEC50 ± SEM, Ca2+ mobilization, NA = not active, Emax ≤ 15%): 15.5 nM; max counts (Male C57BL/6J mice [11]; HTR counts): 102.6; activity in the HTR assay (active / inactive) (Male C57BL/6J mice [11]): active; magnitude of peak effect × vehicle (Male C57BL/6J mice [11]; mouse head twitch): 16.0 × vehicle; maximally effective dose (Male C57BL/6J mice [11]; mouse head twitch): 1 mg/kg; ED50 mg/kg (95% CI), mouse head twitch (Male C57BL/6J mice [11]; test duration 30 min, ref 31 (Halberstadt and Geyer)): 0.078 (0.055–0.111) mg/kg; pEC50, rat tail artery (rat tail artery): 10.09; Emax, rat tail artery (rat tail artery): 30%
COc1ccc2[nH]cc(CCNCc3ccc(Br)cc3)c2c1 [Compound 5f, N-(4-Bromobenzyl)-2-(5-methoxy-1H-indol-3-yl)ethan-1-amine]	11.2	> 10000	83 ± 7	529	251	358	430	108 ± 2	28.8	271	148	566	78	1500	> 10000	427	90 ± 2	1030	4370	selectivity for 5-HT2A over 5-HT2C receptors (5-HT2A receptor [6]; 5-HT2A agonist radioligand, 5-HT2C antagonist radioligand): 1000 fold; affinity for the 5-HT2A receptor (5-HT2A receptor [12]): relatively low affinity; Emax (h5-HT2A): 90.3 ± 1.2%; EC50 (r5-HT2C; [15]): 204 nM; Ki (5-HT2B; 5-HT2B affinity): 150 nM; activity in the HTR assay (active / inactive) (Male C57BL/6J mice [4]; SC): None of the phenethylamines or tryptamines with 4-substituted N-benzyl groups, 4b, 4e, 5c, or 5f, was active; Emax (r5-HT2A): 77.6 ± 2.4%; EC50 (h5-HT2B; [14]): 290 nM; Ki (5-HT1B; 5-HT1B pKi ± SEM): 4470 nM
COc1ccc2[nH]cc(CCN(C)C)c2c1 [Compound 5-MeO-DMT, 5-MeO-N,N-dimethyltryptamine]	–	–	–	–	–	–	–	–	–	–	–	–	–	–	–	–	–	–	–	active dose range, head twitch (mice): 3 to 30 mg/kg
CC(N)Cc1c[nH]c2ccccc12 (stereo not drawn) [α-methyltryptamine]	–	–	–	–	–	–	–	–	–	–	–	–	–	–	–	–	–	–	–	active dose range, head twitch (mice): 3 to 30 mg/kg
COc1cc(CC(C)N)c(OC)cc1I (stereo not drawn) [DOI, 2,5-dimethoxy-4-iodoamphetamine]	–	–	–	–	–	–	–	–	–	–	–	–	–	–	–	–	–	–	–	doses producing the head twitch in mice (mice; 34−36): ≤ 1 mg/kg
